Measurements as given in ChEMBL document CHEMBL4483862, “Open-source discovery of chemical leads for next-generation chemoprotective antimalarials” (2018).

Tested on: Plasmodium berghei
Test: Luciferase/luciferin-expressing antifolate-resistant parasites were used to infect a culture of HepG2 cells that were pre-incubated with compounds. Infected hepatocytes emit light due to the luciferase reaction. Assay results are presented as the percent inhibition of light emission compared to control. […]
Assay type: functional
Settings: sporozoite; for IC90: read-out: LUCIFERASE INFECTION ASSAY - IC90

CCc1c(C)nc2c(-c3ccccc3)c(C)nn2c1Nc1ccc(NC(C)=O)cc1
IC50 (PBLUC_HILL_SLOPE 3.43, PBLUC_R_SQUARED 0.461, read-out: LUCIFERASE INFECTION ASSAY - IC50): 5.52 µM | IC90: > 8.26 µM

COc1cccc(-c2cc3c(Nc4cccnc4)nccc3[nH]2)c1
IC50 (PBLUC_HILL_SLOPE 3.56, PBLUC_R_SQUARED 0.0884, read-out: LUCIFERASE INFECTION ASSAY - IC50): 9.12 µM | IC90: > 10 µM

CN(C)c1cccc(-c2cnc3cnc(-c4ccc(CO)cc4)cn23)c1
IC50 (PBLUC_HILL_SLOPE 3.53, PBLUC_R_SQUARED 0.408, read-out: LUCIFERASE INFECTION ASSAY - IC50): 6.91 µM | IC90: > 9.58 µM

COc1cccc(-c2cc3c(Nc4cccc(N(C)C)c4)nccc3n2C)c1
IC50 (PBLUC_HILL_SLOPE 3.57, PBLUC_R_SQUARED 0.3, read-out: LUCIFERASE INFECTION ASSAY - IC50): 4.46 µM | IC90: 8.25 µM

CC(NC(=O)c1ccccc1NC(=O)CN1CCN(C/C=C/c2ccccc2)CC1)c1ccccc1 (stereo not given)
IC50 (PBLUC_HILL_SLOPE 3.6, PBLUC_R_SQUARED 0.261, read-out: LUCIFERASE INFECTION ASSAY - IC50): 4.62 µM | IC90: 8.52 µM

CNC(=O)c1ccc(CN(C2CC2)S(=O)(=O)c2ccc(Br)s2)cc1
IC50 (PBLUC_HILL_SLOPE 3.54, PBLUC_R_SQUARED 0.19, read-out: LUCIFERASE INFECTION ASSAY - IC50): 5.83 µM | IC90: > 10 µM

CSc1c(-c2ccc(Cl)cc2)[nH]c2ccccc12
IC50 (PBLUC_HILL_SLOPE 3.51, PBLUC_R_SQUARED 0.189, read-out: LUCIFERASE INFECTION ASSAY - IC50): 11.1 µM | IC90: > 12.1 µM

O=C(c1ccco1)N1CCN(c2nc(-c3ccsc3)nc3ccccc23)CC1
IC50 (PBLUC_HILL_SLOPE 3.55, PBLUC_R_SQUARED 0.0384, read-out: LUCIFERASE INFECTION ASSAY - IC50): 7.3 µM | IC90: > 10 µM

CN(C)CCCOc1ccc(-c2nnc3ccc(-c4cccc(OC(F)(F)F)c4)cn23)cc1
IC50 (PBLUC_HILL_SLOPE 3.54, PBLUC_R_SQUARED 0.437, read-out: LUCIFERASE INFECTION ASSAY - IC50): 7.74 µM | IC90: > 10 µM

N#CCCN(Cc1ccco1)C(=O)Cn1ncc(Cl)c(Cl)c1=O
IC50 (PBLUC_HILL_SLOPE 3.57, PBLUC_R_SQUARED 0.442, read-out: LUCIFERASE INFECTION ASSAY - IC50): 8.27 µM | IC90: > 10 µM

Cc1cccc(C(=O)Nc2nc3ccc(C)cn3c2C(=O)NC2CCCC2)c1
IC50 (PBLUC_HILL_SLOPE 3.54, PBLUC_R_SQUARED 0.461, read-out: LUCIFERASE INFECTION ASSAY - IC50): 4.01 µM | IC90: 7.46 µM

COc1ccc(Cn2c(C3CC(=O)N(C)C3)nc3ccccc32)cc1 (stereo not given)
IC50 (PBLUC_HILL_SLOPE 3.53, PBLUC_R_SQUARED 0.0667, read-out: LUCIFERASE INFECTION ASSAY - IC50): 8.05 µM | IC90: > 9.84 µM

COc1cccc(NC(=O)c2cccc(C3(CNc4cccc(OC(F)(F)F)c4)CC3)c2)c1
IC50 (PBLUC_HILL_SLOPE 3.47, PBLUC_R_SQUARED 0.3, read-out: LUCIFERASE INFECTION ASSAY - IC50): 9.2 µM | IC90: > 10 µM

Oc1cccc(-c2cnc3ccc(-c4cccc(C(F)(F)F)c4)nn23)c1
IC50 (PBLUC_HILL_SLOPE 3.46, PBLUC_R_SQUARED 0.251, read-out: LUCIFERASE INFECTION ASSAY - IC50): 6.43 µM | IC90: > 10 µM

COc1ccc(-c2cnc3cnc(-c4ccc(N5CCN(C)CC5)nc4)cn23)cc1
IC50 (PBLUC_HILL_SLOPE 3.44, PBLUC_R_SQUARED 0.167, read-out: LUCIFERASE INFECTION ASSAY - IC50): 6.29 µM | IC90: > 8.24 µM

Cc1cc(C)c(NC(=O)C(=O)NC(C)C)c(C)c1
IC50 (PBLUC_HILL_SLOPE 3.55, PBLUC_R_SQUARED 0.214, read-out: LUCIFERASE INFECTION ASSAY - IC50): 5.93 µM | IC90: 11 µM

FC(F)(F)Oc1cccc(-c2ccc3ncc(-c4cccnc4)n3n2)c1
IC50 (PBLUC_HILL_SLOPE 3.42, PBLUC_R_SQUARED 0.748, read-out: LUCIFERASE INFECTION ASSAY - IC50): 1.76 µM | IC90: 3.34 µM

CC(=O)c1ccccc1NC(=O)CNc1ccccc1N(C)Cc1ccccc1
IC50 (PBLUC_HILL_SLOPE 3.51, PBLUC_R_SQUARED 0.275, read-out: LUCIFERASE INFECTION ASSAY - IC50): 8.09 µM | IC90: > 10 µM

CC1CCC(C(C)C)C(OCC(=O)NCc2ccc(NC(=O)c3ccco3)cc2)C1 (stereo not given)
IC50 (PBLUC_HILL_SLOPE 3.59, PBLUC_R_SQUARED 0.694, read-out: LUCIFERASE INFECTION ASSAY - IC50): 6.09 µM | IC90: > 10 µM

Cc1cc(C)cc(-n2nc(C)c3c2NC(=O)CC3c2ccc3c(c2)OCO3)c1 (stereo not given)
IC50 (PBLUC_HILL_SLOPE 3.57, PBLUC_R_SQUARED 0.259, read-out: LUCIFERASE INFECTION ASSAY - IC50): 7.56 µM | IC90: > 8.79 µM

COc1ccc(C(NCC(=O)Nc2sccc2C(N)=O)c2ccccc2)cc1 (stereo not given)
IC50 (PBLUC_HILL_SLOPE 3.52, PBLUC_R_SQUARED 0.517, read-out: LUCIFERASE INFECTION ASSAY - IC50): 5.37 µM | IC90: > 10 µM

COc1ccccc1-c1nc2ccc(NC(=O)Nc3ccc(OC(F)(F)F)cc3)cn2n1
IC50 (PBLUC_HILL_SLOPE 3.5, PBLUC_R_SQUARED 0.389, read-out: LUCIFERASE INFECTION ASSAY - IC50): 7.37 µM | IC90: > 10 µM

O=C1C(=C2NN=NN2c2ccc(-c3ccccc3)cc2)C=Nc2ccccc21
IC50 (PBLUC_HILL_SLOPE 3.52, PBLUC_R_SQUARED 0.301, read-out: LUCIFERASE INFECTION ASSAY - IC50): 6.48 µM | IC90: > 9.03 µM

Oc1ccc(Nc2nccc3[nH]c(-c4cccc(F)c4)cc23)cc1
IC50 (PBLUC_HILL_SLOPE 3.41, PBLUC_R_SQUARED 0.615, read-out: LUCIFERASE INFECTION ASSAY - IC50): 4.27 µM | IC90: 8.12 µM

COc1ccccc1CNc1ncnc2scc(-c3ccccc3)c12
IC50 (PBLUC_HILL_SLOPE 3.56, PBLUC_R_SQUARED 0.13, read-out: LUCIFERASE INFECTION ASSAY - IC50): 5.66 µM | IC90: > 10 µM

CC(C)c1ccc(CN(C(=O)Cc2c[nH]c3ccccc23)C2CC2)cc1
IC50 (PBLUC_HILL_SLOPE 3.49, PBLUC_R_SQUARED 0.314, read-out: LUCIFERASE INFECTION ASSAY - IC50): > 10 µM | IC90: > 10 µM

CCOc1ccc(C(C)=O)cc1CSc1nc2ccccc2n1-c1cccc(C)c1
IC50 (PBLUC_HILL_SLOPE 3.51, PBLUC_R_SQUARED 0.141, read-out: LUCIFERASE INFECTION ASSAY - IC50): 7.59 µM | IC90: > 10 µM

COCCOc1ccc(C(F)(F)F)cc1NC(=O)Nc1ccc(Cl)c(Cl)c1
IC50 (PBLUC_HILL_SLOPE 3.42, PBLUC_R_SQUARED 0.295, read-out: LUCIFERASE INFECTION ASSAY - IC50): 3.52 µM | IC90: 6.68 µM

CC(=O)Nc1ccc(Nc2cc3c(cn2)cc(-c2cccnc2)n3Cc2ccccc2)cc1
IC50 (PBLUC_HILL_SLOPE 3.49, PBLUC_R_SQUARED 0.716, read-out: LUCIFERASE INFECTION ASSAY - IC50): 4.06 µM | IC90: 7.61 µM

COc1cccc(Oc2ccc(C(F)(F)F)cc2NC(=O)c2ccc(NC(=O)C3CC3)s2)c1
IC50 (PBLUC_HILL_SLOPE 3.5, PBLUC_R_SQUARED 0.215, read-out: LUCIFERASE INFECTION ASSAY - IC50): 6.65 µM | IC90: > 10 µM

Cc1ccc(CNC(=O)c2ccc(CN3CCc4ccccc4C3)cc2)cc1
IC50 (PBLUC_HILL_SLOPE 3.55, PBLUC_R_SQUARED 0.838, read-out: LUCIFERASE INFECTION ASSAY - IC50): 6.04 µM | IC90: > 8.91 µM

COc1ccc(Cn2c(C)nc3oc4ccccc4c(=O)c3c2=O)cc1
IC50 (PBLUC_HILL_SLOPE 3.46, PBLUC_R_SQUARED 0.26, read-out: LUCIFERASE INFECTION ASSAY - IC50): 6.48 µM | IC90: > 9.47 µM

COc1ccc(-c2cc(C(=O)N[C@@H](CCSC)c3nc4ccccc4[nH]3)c3ccccc3n2)cc1OC
IC50 (PBLUC_HILL_SLOPE 3.46, PBLUC_R_SQUARED 0.459, read-out: LUCIFERASE INFECTION ASSAY - IC50): 4.26 µM | IC90: 8.04 µM

COc1ccc(Nc2nccc3c2cc(-c2ccccc2OC)n3C)c(OC)c1
IC50 (PBLUC_HILL_SLOPE 3.43, PBLUC_R_SQUARED 0.599, read-out: LUCIFERASE INFECTION ASSAY - IC50): 4.25 µM | IC90: 8.07 µM

Cc1nc2c3c(C)c(C)n(Cc4ccccc4)c3ncn2n1
IC50 (PBLUC_HILL_SLOPE 3.56, PBLUC_R_SQUARED 0.538, read-out: LUCIFERASE INFECTION ASSAY - IC50): 9.25 µM | IC90: > 11.3 µM

COc1ccc(C(CNC(=O)c2cc3cc(Br)ccc3[nH]2)N2CCCC2)cc1 (stereo not given)
IC50 (PBLUC_HILL_SLOPE 3.58, PBLUC_R_SQUARED 0.137, read-out: LUCIFERASE INFECTION ASSAY - IC50): > 10 µM | IC90: > 10 µM

Cc1nn2c(=O)cc(C(C)C)[nH]c2c1-c1ccccc1
IC50 (PBLUC_HILL_SLOPE 3.42, PBLUC_R_SQUARED 0.611, read-out: LUCIFERASE INFECTION ASSAY - IC50): 5.51 µM | IC90: 10.5 µM

O=C(NC1CC1)c1ccc(-c2cnn3c(NCc4ccc(F)cc4)ccnc23)cc1
IC50 (PBLUC_HILL_SLOPE 3.6, PBLUC_R_SQUARED 0.311, read-out: LUCIFERASE INFECTION ASSAY - IC50): 4.82 µM | IC90: > 8.22 µM

Fc1ccc(-c2cnc3cnc(-c4ccccc4Cl)cn23)cc1Cl
IC50 (PBLUC_HILL_SLOPE 3.59, PBLUC_R_SQUARED 0.419, read-out: LUCIFERASE INFECTION ASSAY - IC50): 8.08 µM | IC90: > 9.21 µM

Cc1cc(C)cc(NC(=S)NCCCCN2CCN(c3cccc(Cl)c3)CC2)c1
IC50 (PBLUC_HILL_SLOPE 3.55, PBLUC_R_SQUARED 0.0766, read-out: LUCIFERASE INFECTION ASSAY - IC50): 7.54 µM | IC90: > 7.66 µM
